Test results taken from US20080167532A1, “ASSESSING CANCER TREATMENT RESPONSIVENESS” (Mayo Foundation for Medical Education and Research, priority 2006, published 2008).

How the values were obtained:
[1] = system: DRO and ARO tumor tissues; assay: Western blot of DRO and ARO tumor tissues from athymic nude mice; type: in vivo
Method: RhoB and p21^WAF1/CIP1 polypeptide expression also was examined in DRO and ARO tumor tissues removed from athymic nude mice following 35 days of treatment with vehicle control (−) or 0.025% RS5444 in the diet. Beta-actin was used as a normalization control to ensure even loading of total polypeptide in all lanes.
Suspensions of 1×10^6/0.1 mL DRO or ARO cells in RPMI medium were injected subcutaneously in one flank of 3 to 4 week old athymic female nude mice. Mice were changed to specialized diets 1 week after tumor implantation and randomly assigned to diets consisting of either 0.025% RS5444 or sham control (Research Diets). Mice weighed between 20-25 grams and consumed on average 4 grams of food per day (1 mg/day of RS5444). Tumors were measured every 3 to 4 days for 35 days with calipers and tumor volumes were calculated by the formula: 0.5236(a×b×c), where a is the shortest diameter, b is the diameter perpendicular to a, and c is the diameter height.
Cells were collected and lysed in RIPA buffer containing 50 mM Tris, 5 mM EDTA, 150 mM NaCl, 0.1% SDS, 0.5% Deoxycholate, 1% NP40, and protease inhibitor cocktail (Roche) followed by centrifugation. Excised tumor tissues were lysed in 50 mM Tris pH 8.0+1% SDS. Collected supernatants were, analyzed for protein concentration using Pierce's BCA assay, with 25 μg protein loaded per gel lane (Invitrogen) with later transfer to Immobilon-P membranes. The membranes were hybridized with antibodies (Santa Cruz, Cell Signaling, Sigma-Aldrich, St. Louis Mo.) as indicated overnight at 4° C. followed by treatment with species-specific horseradish peroxidase IgG (Jackson labs) for 45 minutes at room temperature. Detection was performed using Supersignal West Pico chemoluminescence kit (Pierce). Quantification of bands was performed in triplicate using Image Quant 5.2 (Molecular Dynamics, Sunnyvale Calif.).

DRO cells = assay: Affymetrix Plus 2.0 array, nucleic acid expression in DRO cells in cell culture; type: cell-based, human; details: 10 nM single dose
Method: Affymetrix Plus 2.0 arrays were used to identify nucleic acids altered between control vehicle-treated and RS5444-treated ATC cells from cell culture and tumors implanted ectopically into athymic nude mice. Cells in culture were treated with a single dose of 10 nM RS5444 for either 2, 6, or 24 hours. Animals were treated with 0.025% RS5444 after implantation of 1×10^6 DRO cells. Animals were fed a diet including 0.025% RS5444 for 35 days, and tumor volume was measured weekly. Tumor tissues were removed, RNA was isolated, and nucleic acid expression was analyzed. Examples of some nucleic acids, the expression of which was altered in both the animal derived tumors and cells in culture, are presented in Table 1. Some of the nucleic acids regulated by PPARγ in ATC cells (e.g., BMP2, MMP14, ANGPTL4, and ITGA5) are secreted polypeptides (Table 1).

PPARγ = target: T1, PPARγ (Homo sapiens, UniProt P37231); assay: PPRE3-tk-luc reporter (dual luciferase) assay in DRO cells; type: cell-based; design: endogenous in cells; host or cells: DRO90-1 (DRO) human anaplastic thyroid carcinoma cells; details: DRO cells, PPRE3-tk-luc reporter, 24 hours; read-out: EC50, concentration at which 50% maximal transcriptional response occurs
T1 sequence (P37231 1-505): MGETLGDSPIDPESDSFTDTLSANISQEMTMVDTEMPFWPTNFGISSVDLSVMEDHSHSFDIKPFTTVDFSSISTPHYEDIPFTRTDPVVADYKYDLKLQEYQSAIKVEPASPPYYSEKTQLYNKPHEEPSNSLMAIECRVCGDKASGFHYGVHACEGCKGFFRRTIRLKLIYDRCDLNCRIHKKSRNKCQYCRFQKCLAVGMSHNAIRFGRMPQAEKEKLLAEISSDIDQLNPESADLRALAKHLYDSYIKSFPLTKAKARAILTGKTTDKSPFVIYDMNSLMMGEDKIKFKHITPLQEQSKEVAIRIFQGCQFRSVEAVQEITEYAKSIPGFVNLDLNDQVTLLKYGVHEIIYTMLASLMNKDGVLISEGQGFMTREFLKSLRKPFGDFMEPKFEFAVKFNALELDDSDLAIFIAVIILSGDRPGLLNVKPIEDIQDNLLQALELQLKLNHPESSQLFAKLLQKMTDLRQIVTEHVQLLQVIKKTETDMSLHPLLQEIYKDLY
Method: The effects of PPARγ agonists on DRO cells were investigated. […] Firefly luciferase activity was normalized to renilla […] activity (RLU) and plotted as mean values ±S.D. (FIG. 3A).
Cells were transfected with siRNA for 72 hours followed by transfected with a PPRE3-tk-luc reporter and treatment with 10 nM RS5444 for 24 hours. […] Cotransfection with renilla luciferase allowed for normalization to relative light units (RLU).
Cells were plated in 6-well culture plates at initial concentrations of 2×10^5 cells/well. After overnight incubation, cells were transfected with PPRE/luc and CMV/renilla luciferase plasmid using Lipofectamine 2000 (Invitrogen), and after 24 hours, cells were treated with PPAR-γ agonists at indicated concentrations. After 24 hours of drug treatments, cells were washed with PBS and lysed in 1× reporter lysis buffer (Roche), and luciferase activity was measured with a Dual Luciferase assay kit (Promega, Madison Wis.) with a luminometer (Veritas/Turner Biosystems). The enzyme activity was normalized for efficiency of transfection on the basis of renilla activity levels and reported as relative light units (RLU).

DRO = assay: ATC (DRO) tumor growth in athymic nude mice, RS5444 in diet; type: in vivo; details: for tumor growth inhibition: started one week prior to DRO implantation
Method: RS5444 was added to the rodent diet one week prior to tumor implantation with DRO. […] Suspensions of 1×10^6/0.1 mL DRO or ARO cells in RPMI medium were injected subcutaneously in one flank of 3 to 4 week old athymic female nude mice. […] Mice weighed between 20-25 grams and consumed on average 4 grams of food per day (1 mg/day of RS5444).

[2] = DRO and ARO tumors, 0.025% in diet for 35 days

Cc1cc(Oc2ccc3nc(COc4ccc(CC5SC(=O)NC5=O)cc4)n(C)c3c2)cc(C)c1N (stereo not shown) [RS5444]
RhoB polypeptide in tumors (Western blot) ([1]; ATC tumors from mice, 4 weeks of 0.025% in diet): elevated
RhoB polypeptide expression in tumors [1, 2]: elevated
cyclin E levels in tumors [1, 2]: down-regulated
p21WAF1/CIP1 polypeptide expression in tumors [1, 2]: elevated
Fold change in vitro, ADRB1 (DRO cells; ADRB1, 2 h): −3.3 fold
Fold change in vitro, ADRB1 (DRO cells; ADRB1, 24 h): −2.2 fold
Fold change in vitro, ANGPTL4 (DRO cells; ANGPTL4, 2 h): 5.3 fold
Fold change in vitro, ANGPTL4 (DRO cells; ANGPTL4, 6 h): 4.9 fold
Fold change in vitro, ANGPTL4 (DRO cells; ANGPTL4, 24 h): 8.4 fold
Fold change in vitro, BMP2 (DRO cells; BMP2, 24 h): 2.5 fold
Fold change in vitro, HR (DRO cells; 2 h): 2 fold
Fold change in vitro, HR (DRO cells; 24 h): 2.3 fold
Fold change in vitro, IL1B (DRO cells; IL1B, 24 h): 14.2 fold
Fold change in vitro, ITGA5 (DRO cells; ITGA5, 24 h): 2.2 fold
Fold change in vitro, LMAN1 (DRO cells; LMAN1, 6 h): −2 fold
Fold change in vitro, MMP14 (DRO cells; MMP14, 2 h): 5.4 fold
Fold change in vitro, MMP14 (DRO cells; MMP14, 24 h): 16.9 fold
Fold change in vitro, RhoB (DRO cells; 2 h): 3.4 fold
Fold change in vitro, RhoB (DRO cells; 6 h): 4.1 fold
Fold change in vitro, RhoB (DRO cells; 24 h): 2.8 fold
EC50 (PPARγ): ~1 nM
tumor growth inhibition (DRO; 0.00025% in diet): No inhibition of tumor growth
tumor growth inhibition (DRO; 0.0025% in diet): 54.5%
mice that did not form tumors (DRO; 0.025% diet group): 5 of 10
tumor growth inhibition (DRO; 0.025% in diet): 89.7%
